Experimental data published in patent publication US20240074996A1, “C5 KETONE COMPOSITIONS AND RELATED METHODS FOR TREATING METABOLIC DYSFUNCTION” (Keto Innovations, LLC, priority 2018, published 2024).

Tests used:
[1] = Borg Rating of Perceived Exertion during cycling exercise (Example 2); format: in vivo, human; settings: 10 grams
From the text: The purpose of this experiment was to see if C5 ketones could lower exertion during moderate and high intensity cycling exercise. Five (5) college aged males were given a placebo or BKP (10 grams) prior to and during 2-minute low, moderate and high intensity cycling bouts. […] Perceived exertion is how hard one feels like the body is working.

[2] = Blood ketones (BHB, Abbott Precision) after oral BHP or BKP (Example 1); format: in vivo, human; settings: 10 g oral in water, 12 h fast
Method: (§1) Two (2) healthy, male subjects reported to the laboratory following a 12 hour overnight fast. Subjects were instructed to randomly consume either 10 grams of BHP or 10 grams BKP dissolved in 12 ounces of water. Subjects were then monitored for 150 minutes following drinking the mixture. Blood glucose, ketones, and visual analog scales (VAS) of well-being, energy, and focus were taken at 0, 30, 60, 90, 120, and 150 minutes. VAS scales consisted of a continuum of numbers from 1-10 with 1 being extremely low and 10 being extremely high.
(§2) Blood ketones were measured via finger prick using an Abbott Precision device which determines mMol of BHB. Blood glucose was measured using Abbott Precision glucose strips and was measured in mg/dL.

[3] = Visual analog scale of focus after BHP or BKP (Example 1); format: in vivo, human; settings: scale 1-10, 10 g oral, 12 h fast
Method: as §1

[4] = Blood glucose after oral BHP or BKP (Example 1); format: in vivo, human; settings: 10 g oral in water, 12 h fast
Method: as §1, §2

[5] = in vivo, cited from earlier work
[6] = Visual analog scale of energy after BHP or BKP (Example 1); format: in vivo, human; settings: scale 1-10, 10 g oral, 12 h fast
Method: as §1

[7] = Visual analog scale of well-being after BHP or BKP (Example 1); format: in vivo, human; settings: scale 1-10, 10 g oral, 12 h fast
Method: as §1

CCC(=O)CC(=O)O [BKP, β-ketopentanoate]
Rating of Perceived Exertion (RPE) High Intensity ([1]; college aged males, 2-minute cycling bout, High Intensity): 17 ± 2 | Rating of Perceived Exertion (RPE) Low Intensity ([1]; college aged males, 2-minute cycling bout, Low Intensity): 9 ± 1 | Rating of Perceived Exertion (RPE) Moderate Intensity ([1]; college aged males, 2-minute cycling bout, Moderate Intensity): 13 ± 2 | Rating of Perceived Exertion (RPE) 30 min.-Post ([1]; college aged males, cycling, 30 min.-Post): 8 ± 1 | Rating of Perceived Exertion (RPE) Baseline ([1]; college aged males, cycling, Baseline): 7 ± 1 | Perceived exertion compared to a placebo ([1]; moderate and high intensity cycling): lower perceived exertion at both moderate and high intensity exercise | Blood ketone levels ([2]; Combined, 0 min.): 0.1 mmol | Blood ketone levels ([2]; Combined, 30 min.): 0.1 mmol | Blood ketone levels ([2]; Combined, 60 min.): 0.2 mmol | Blood ketone levels ([2]; Combined, 90 min.): 0.1 mmol | Blood ketone levels ([2]; Combined, 120 min.): 0.1 mmol | Blood ketone levels ([2]; Combined, 150 min.): 0.1 mmol | Blood ketone levels ([2]; Subject 1, 0 min.): 0.1 mmol | Blood ketone levels ([2]; Subject 1, 30 min.): 0.1 mmol | Blood ketone levels ([2]; Subject 1, 60 min.): 0.2 mmol | Blood ketone levels ([2]; Subject 1, 90 min.): 0.1 mmol | Blood ketone levels ([2]; Subject 1, 120 min.): 0.1 mmol | Blood ketone levels ([2]; Subject 1, 150 min.): 0.1 mmol | Blood ketone levels ([2]; Subject 2, 0 min.): 0.1 mmol | Blood ketone levels ([2]; Subject 2, 30 min.): 0.1 mmol | Blood ketone levels ([2]; Subject 2, 60 min.): 0.2 mmol | Blood ketone levels ([2]; Subject 2, 90 min.): 0.1 mmol | Blood ketone levels ([2]; Subject 2, 120 min.): 0.1 mmol | Blood ketone levels ([2]; Subject 2, 150 min.): 0.1 mmol | VAS of Focus ([3]; Combined, 0 min.): 5.5 | VAS of Focus ([3]; Combined, 30 min.): 5.5 | VAS of Focus ([3]; Combined, 60 min.): 6 | VAS of Focus ([3]; Combined, 90 min.): 6.5 | VAS of Focus ([3]; Combined, 120 min.): 7 | VAS of Focus ([3]; Combined, 150 min.): 7 | VAS of Focus ([3]; Subject 1, 0 min.): 6 | VAS of Focus ([3]; Subject 1, 30 min.): 5 | VAS of Focus ([3]; Subject 1, 60 min.): 7 | VAS of Focus ([3]; Subject 1, 90 min.): 7 | VAS of Focus ([3]; Subject 1, 120 min.): 7 | VAS of Focus ([3]; Subject 1, 150 min.): 8 | VAS of Focus ([3]; Subject 2, 0 min.): 5 | VAS of Focus ([3]; Subject 2, 30 min.): 6 | VAS of Focus ([3]; Subject 2, 60 min.): 5 | VAS of Focus ([3]; Subject 2, 90 min.): 6 | VAS of Focus ([3]; Subject 2, 120 min.): 7 | VAS of Focus ([3]; Subject 2, 150 min.): 6 | Blood glucose levels ([4]; Combined, 0 min.): 89.5 mg/dL | Blood glucose levels ([4]; Combined, 30 min.): 87.5 mg/dL | Blood glucose levels ([4]; Combined, 60 min.): 81 mg/dL | Blood glucose levels ([4]; Combined, 90 min.): 79.5 mg/dL | Blood glucose levels ([4]; Combined, 120 min.): 87.5 mg/dL | Blood glucose levels ([4]; Combined, 150 min.): 84 mg/dL | Blood glucose levels ([4]; Subject 1, 0 min.): 88 mg/dL | Blood glucose levels ([4]; Subject 1, 30 min.): 84 mg/dL | Blood glucose levels ([4]; Subject 1, 60 min.): 79 mg/dL | Blood glucose levels ([4]; Subject 1, 90 min.): 83 mg/dL | Blood glucose levels ([4]; Subject 1, 120 min.): 85 mg/dL | Blood glucose levels ([4]; Subject 1, 150 min.): 87 mg/dL | Blood glucose levels ([4]; Subject 2, 0 min.): 91 mg/dL | Blood glucose levels ([4]; Subject 2, 30 min.): 91 mg/dL | Blood glucose levels ([4]; Subject 2, 60 min.): 83 mg/dL | Blood glucose levels ([4]; Subject 2, 90 min.): 76 mg/dL | Blood glucose levels ([4]; Subject 2, 120 min.): 90 mg/dL | Blood glucose levels ([4]; Subject 2, 150 min.): 81 mg/dL | Utilisation after intravenous administration ([5]; iv): very rapidly used | Metabolism and tolerance in animals [5]: well metabolized in animals without apparent intolerance | VAS of Energy ([6]; Combined, 0 min.): 6 | VAS of Energy ([6]; Combined, 30 min.): 6.5 | VAS of Energy ([6]; Combined, 60 min.): 7 | VAS of Energy ([6]; Combined, 90 min.): 7 | VAS of Energy ([6]; Combined, 120 min.): 7.5 | VAS of Energy ([6]; Combined, 150 min.): 8 | VAS of Energy ([6]; Subject 1, 0 min.): 7 | VAS of Energy ([6]; Subject 1, 30 min.): 7 | VAS of Energy ([6]; Subject 1, 60 min.): 7 | VAS of Energy ([6]; Subject 1, 90 min.): 8 | VAS of Energy ([6]; Subject 1, 120 min.): 8 | VAS of Energy ([6]; Subject 1, 150 min.): 9 | VAS of Energy ([6]; Subject 2, 0 min.): 5 | VAS of Energy ([6]; Subject 2, 30 min.): 6 | VAS of Energy ([6]; Subject 2, 60 min.): 7 | VAS of Energy ([6]; Subject 2, 90 min.): 6 | VAS of Energy ([6]; Subject 2, 120 min.): 7 | VAS of Energy ([6]; Subject 2, 150 min.): 7 | VAS of Well-Being ([7]; Combined, 0 min.): 6.5 | VAS of Well-Being ([7]; Combined, 30 min.): 6.5 | VAS of Well-Being ([7]; Combined, 60 min.): 7.5 | VAS of Well-Being ([7]; Combined, 90 min.): 7.5 | VAS of Well-Being ([7]; Combined, 120 min.): 8 | VAS of Well-Being ([7]; Combined, 150 min.): 8 | VAS of Well-Being ([7]; Subject 1, 0 min.): 7 | VAS of Well-Being ([7]; Subject 1, 30 min.): 7 | VAS of Well-Being ([7]; Subject 1, 60 min.): 9 | VAS of Well-Being ([7]; Subject 1, 90 min.): 9 | VAS of Well-Being ([7]; Subject 1, 120 min.): 9 | VAS of Well-Being ([7]; Subject 1, 150 min.): 9 | VAS of Well-Being ([7]; Subject 2, 0 min.): 6 | VAS of Well-Being ([7]; Subject 2, 30 min.): 6 | VAS of Well-Being ([7]; Subject 2, 60 min.): 6 | VAS of Well-Being ([7]; Subject 2, 90 min.): 6 | VAS of Well-Being ([7]; Subject 2, 120 min.): 7 | VAS of Well-Being ([7]; Subject 2, 150 min.): 7
